Measured values from PubChem BioAssay (NCI).
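In this assay, cells in 96-well plates receive the compound at five concentrations for 48 hours. Endpoints are linearly interpolated between the surrounding concentrations. GI50 is the concentration that inhibits growth by half. Definition used: TGI = concentration required for complete inhibition of growth.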

Columns and labels:
Experiment in all cases: inhibition of tumour cell growth, NCI panel, 48 h
[1] = system: HOP-92 NSCLC
[2] = system: HOP-62 NSCLC
[3] = system: HCT-15 colon
[4] = system: MDA-MB-435
[5] = system: SK-MEL-5 melanoma
[6] = system: ACHN renal
[7] = system: A549 NSCLC
[8] = system: PC-3 prostate
[9] = system: NCI-H226 lung
[10] = system: 786-0 renal
[11] = system: UACC-62 melanoma
[12] = system: HCT-116 colon
[13] = system: NCI-H522 lung
[14] = system: HS 578T breast
[15] = system: OVCAR-5 ovarian
[16] = system: K-562 leukemia
[17] = system: COLO 205 colon
[18] = system: MDA-N

SMILES	TGI [1] [µM]	TGI [2] [µM]	TGI [3] [µM]	TGI [4] [µM]	TGI [5] [µM]	TGI [6] [µM]	TGI [7] [µM]	TGI [8] [µM]	TGI [9] [µM]	TGI [10] [µM]	TGI [11] [µM]	TGI [12] [µM]	TGI [13] [µM]	TGI [14] [µM]	TGI [15] [µM]	TGI [16] [µM]	TGI [17] [µM]	TGI [18] [µM]	GI50 [16] [µM]
CN(CC(=O)O)c1ncc2c(n1)C=CCC2	> 100	> 100	> 100	> 100	> 100	> 100	> 100	> 100	> 100	> 100	> 100	> 100	> 100	> 100	> 100	> 100	> 100	> 100	
COC(=O)/C=C\C(C#N)(C#N)N=Cc1cccc(OC)c1	7.29	> 62.1	4.54	13.5	31.4	7.63	35.1	29.5	28.7	13.7	31.8	7.14	3	38	20.1	> 100	5.06	17.2	
CCCCCCCCCCCCOP(=O)(O)OP(=O)(O)OCC1OC(n2ccc(N)nc2=O)CC1O (stereo not given)	> 100	> 100	> 100	> 100	> 100	> 100	> 100	> 100	> 100	> 100	> 100	> 100	> 100	> 100	> 100	> 100	> 100	> 100	
CC(Oc1ccccc1Cl)C(=O)NN1C(=O)CC(=O)N(c2ccccc2)C1=S (stereo not given)	68.8	> 100	> 100	> 100	> 100	> 100	> 100	> 100	> 100	> 100	> 100	> 100	> 100	> 100	> 100	> 100	> 100	> 100	
COC(=O)C1Cc2ccc(O)c(O)c2CN1 (stereo not given)	86.7	> 100	87.1	30.5	28.5	> 100	> 100	84.3	> 100	31.8	39	52.6	> 100	56	70.3	83.6	> 100	30.8	
COc1cc(CSc2ccc(O)cc2)cc(OC)c1OC	71.3	> 100	> 100	> 100	34.9	> 100	> 100	> 100	> 100	> 100	> 100	> 100	> 100	> 100	> 100	> 100	> 100	> 100	
Cc1nc(SCC(=O)Nc2ccc(Cl)cc2)c2sc(=S)n(-c3ccccc3)c2n1	> 10	> 10	> 10	> 10	> 10	> 10	> 10	> 10	> 10	> 10	> 10	> 10	> 10	> 10	> 10	> 10	> 10	> 10	
COc1cc2c(c(OC)c1OC)C(=O)[C@@H]1[C@H]2N1C(=O)NCCCl	> 100	> 100	> 100	> 100	> 100	> 100	> 100	> 100	> 100	> 100	> 100	> 100	> 100	> 100	> 100	> 100	78.3	> 100	
COc1ccc(OC)c(NCC(=O)Nn2cnc3ccc(S(=O)(=O)Nc4cc(OC)ccc4OC)cc3c2=O)c1	> 100	> 100	> 100	> 100		> 100	> 100	> 100	> 100	> 100	> 100	> 100	> 100	> 100	> 100	> 100	> 100	> 100	
O=C(Cc1ccccc1F)NC1=C(Cl)C(=O)c2ccccc2C1=O	2.49	24.2	13.3	10.4	4.37	2.02	15.7	11.9	6.7	9.68	1.92	5.12	0.565	23.8	21.2	> 41.8	6.9	11.8	
COc1cccc(C23CCCC(C2)NCC3Br)c1OC (stereo not given)	> 100	> 100	> 100	> 100	13.1	73.8	> 100	> 100	5.37	> 100	58.1	> 100	53.3	78.5	> 100	> 100	27.1	> 100	
Cc1ccc(C(=O)Nc2ccc(CP(=O)(O)O)cc2)cc1NC(=O)c1cccc(N)c1	> 100	> 100	> 100	> 100	> 100	> 100	> 100	> 100	> 100	> 100	> 100	> 100	> 100	> 100	> 100	> 100	> 100	> 100	
CCOC(=O)/C=C(\C(=O)OCC)n1ccc(=O)n(Cc2cnnn2CCCCOC(C)=O)c1=O	5.63	41.9	20.3	22.9	30.2	5.52	40.2	30.8	39.4	> 37.5	23.4	> 45.3	3.05	58.9	29.4	10.2	5.8	51.4	2.1
O=C1c2ccccc2C(=O)N1CCSCC(CO)SCCN1C(=O)c2ccccc2C1=O (stereo not given)	> 100	> 100	> 100	> 100	> 100	> 100	> 100	> 100	> 100	> 100	> 100	> 100	> 100	> 100	> 100	> 100	> 100	> 100	
N#CC1(C#N)NC(c2ccccc2)C(C#N)(C#N)NC1c1ccccc1 (stereo not given)	> 100	> 100	> 100	> 100	> 100	> 100	> 100	> 100	> 100	> 100	> 100	> 100	> 100	> 100	> 100	> 100	> 100	> 100	
COc1ccccc1Cc1ccc(C2C=CC3(CC(=O)C=C3C)C(=O)C2)o1 (stereo not given)	75.6	50.3	81.4	46.8	29	> 100	> 100	38.3	61.6	41.9	31.8	89.6	37.4	68.7	> 100	50.1	50.5	44.2	
NNC(=O)CC(=O)Nc1cccc(Cl)c1	> 100	> 100	> 100	> 100	> 100	> 100	> 100	> 100	> 100	> 100	> 100	> 100	> 100	> 100	> 100	> 100	> 100	> 100	
O=C(CN(C(=O)OC12CC3CC(CC(C3)C1)C2)C(=O)OC12CC3CC(CC(C3)C1)C2)Oc1ccc([N+](=O)[O-])cc1	> 100	> 100	> 100	> 100	> 100	> 100	> 100	> 100	> 100	> 100	> 100	> 100	> 100	> 100	> 100	> 100	> 100	> 100	
S=C(N/N=C(\c1ccccc1)c1ccccn1)NC1CCCCC1	> 100	> 100	> 100	> 100	> 100	> 100	> 100	> 100	> 100	> 100	> 100	> 100	> 100	> 100	> 100	> 100	> 100	> 100	
Cc1cc(Cl)nc2nc(Cl)c(N)cc12	4.46	19	4.6	4.64	24.6	18.4	37.2	30.4	51.7	10.5	5.95	5.92	12	> 24.3	34	> 100	4.3	3.63	
